From US20110070269A1, “LIPOPOLYSACCHARIDE ISOLATED FROM PYRULARIA TISSUE AND/OR PYRULARIA-ASSOCIATED BACTERIA AND USES THEREOF” (THERAPRO TECHNOLOGIES, INC., priority 2009, published 2011)

Key:
human bone marrow cells = experiment: Activation of human bone marrow (Mac-1 x CD14 flow cytometry); format: cell-based; conditions: 5 ng/mL, fresh marrow from normal donor
Protocol: Human bone marrow was provided by the Bone Marrow Transplantation Unit, University of Utah. Experiments were initiated upon obtaining fresh marrow from normal donors. Whole marrow was treated as described above for murine marrow samples. Following incubation for 24 to 36 hours with PyEx or other agents as described, cells were stained with anti-Mac-1-FITC×anti-CD14-PE. Cells were analyzed using a Coulter EPICS-XL™ flow cytometer (Beckman-Coulter, Fullerton, Calif.). Activated populations were identified by positive staining with Mac-1×CD14 (designated Mac-1^+, CD14^+).

murine bone marrow cells = experiment: Bone marrow activation assay (flow cytometry, percent of cells activated); format: cell-based, mouse; conditions: 3 mM
Protocol: Bone marrow was flushed from the femurs of Balb/C mice with RPMI medium. Cells were collected by centrifugation and the pellet treated with 1 mL of red cell lysis buffer (as described above) for five minutes at 25° C., followed by dilution with 12 mL of RPMI media. Cells were washed by two cycles of centrifugation and resuspension in RPMI. On the final wash, cells were counted using a hemocytometer and the final pellet was resuspended to 4×10^6 cells/mL with RPMI media for use in activation assays, which were quantitated by flow cytometric analysis (described below).
Cells (200 μL, prepared as described above) were collected after gentle trituration to resuspend cells. Each aliquot was diluted with 1 mL PBS, centrifuged to pellet the cells, and the supernatant liquid was removed. The washed cells were sequentially stained in the dark at 4° C. for 15 minutes with anti-CD16/32 to prevent non-specific labeling, then for 45 minutes with either anti-Mac-1-FITC×anti-Mac-1-PE or with Gr-1-FITC×Mac-1-PE. Cells were washed once at 4° C. with 1 mL of PBS and then resuspended in 1 mL of PBS. Human cells were labeled with anti-Mac-1 as above or with anti-Mac-1-FITC×anti-CD14. […] Approximately 15-20×10^3 cells were counted for each analysis. Percent of cells activated was determined as: […]

bone marrow cells = experiment: Bone marrow cell viability (propidium iodide exclusion); format: cell-based; conditions: mouse, 3 mM
Protocol: Cells (200 μL, prepared as described above) were collected after gentle trituration to resuspend cells. Each aliquot was diluted with 1 mL PBS, centrifuged to pellet the cells, and the supernatant liquid was removed. The washed cells were sequentially stained in the dark at 4° C. for 15 minutes with anti-CD16/32 to prevent non-specific labeling, then for 45 minutes with either anti-Mac-1-FITC×anti-Mac-1-PE or with Gr-1-FITC×Mac-1-PE. Cells were washed once at 4° C. with 1 mL of PBS and then resuspended in 1 mL of PBS. Human cells were labeled with anti-Mac-1 as above or with anti-Mac-1-FITC×anti-CD14. A Coulter EPICS-XL™ flow cytometer was used to enumerate dual, positively-staining control sub-populations and detection of nascent stimulated sub-populations. Activated sub-populations, which labeled with more intensity along the y-axis in Gr-I-FITC×Mac-1-PE, were designated as Mac-1^+hi. Control unactivated cells that also stained positively in both dimensions were designated, Mac-1^+lo. Dead cells were eliminated from analysis by prior staining with propidium iodide. Approximately 15-20×10^3 cells were counted for each analysis. Percent of cells activated was determined as:
Over 15×10^3 cells were analyzed for each sample. Bone marrow cell viability among all samples including the untreated control was 70-76% as determined by propidium iodide exclusion.

Balb/C mice [1] = experiment: In vivo neutropenia model (sub-lethal cyclophosphamide); parameters: species or system mouse; conditions: day five
Protocol: Eighteen to twenty-four hours later (day 1), control mice received an injection of saline and the PyEx group received a single dose of PyEx (20 μg/mouse). Mice were bled sequentially via the retro-orbital sinus or tail vein at various times thereafter. Blood was collected in heparinized capillary tubes.
For determination of total versus white cells, blood was diluted into Isoton II (Beckman-Coulter, Fullerton, Calif.). Total cells and white cells were counted using a Model ZM Coulter counter (Beckman-Coulter, Fullerton, Calif.). White cell counts were determined following treatment of whole blood with a RBC lytic reagent (Zap-Oglobin, Beckman-Coulter, Fullerton, Calif.). Blood granulocytes and myelocytes were quantitated by means of an EPICS-XL™ flow cytometry after lysis of red cells.
To more clearly determine what populations of cells were stimulated by treatment with PyEx, in a similar experiment blood and bone marrow cells were collected and analyzed for total blood granulocytes and myelocytes. […] PyEx-1 (20 μg/mouse) was given to mice 24 hours after administration of CP. Blood from PyEx-1 treated experimental and saline treated control mice was collected with heparinized capillary tubes five days after CP administration. Following lysis of red cells, the remaining cells were analyzed by means of an EPICS-XL™ flow cytometer (Beckman-Coulter, Fullerton, Calif.). […]

[2] = Physical analysis: stability of the immunostimulatory/mitogenic activity; format: physicochemical; conditions: proteinase K 50 μg/ml, 10 mM Tris pH 8.0, 10 mM EDTA, 0.5% SDS, 56° C., 30 minutes
Protocol: A mitogenic assay was used as a measure of immunostimulation. For the mitogen assay, isolated cells were diluted to 1.5×10^6 cells/mL. Aliquots of cells (200 μL/well) were incubated in sterile 96-well plates for 24 to 48 hours prior to the addition of 1 μCi/well of [^3H]thymidine. Radiolabeled DNA was collected on glass fiber filters by means of an Inotech cell harvester (Rockville, Md.) and associated radioactivity was determined by means of an Inotech radiometric instrument or by scintillation counting of individual filters. TLF-D, a proprietary reagent, was utilized at 10 μg/ml to amplify the mitogenic activity of Pyrularia extract (PyEx) in a synergistic fashion.

Balb/C mice [3] = experiment: Prevention of drug-induced (melphalan) toxic death; format: in vivo, mouse; conditions: melphalan 100 mg/kg i.p. alone
Protocol: The effect of PyEx upon myelocyte stimulation was also observed in vivo as prevention of drug-induced myelosuppression. […] A separate group received melphalan (100 mg/kg, i.p.) and PyEx-1 (10 μg/mouse, subcutaneously). PyEx-1 was given immediately after or as late as 18 hours after melphalan administration, and every 48 hours thereafter.

rhGM-CSF: Recombinant human granulocyte macrophage-colony stimulating factor
activated sub-population (Mac-1+, CD14+), % of total cells (human bone marrow cells): 9%

CC(=O)CCCCn1c(=O)c2c(ncn2C)n(C)c1=O [pentoxifylline]
Activation (murine bone marrow cells): 7.54%
Viability (bone marrow cells): 61.5%

O=P1(N(CCCl)CCCl)NCCCO1 (stereo not drawn) [Cyclophosphamide]
total WBC restoration, % of the difference between the nadir value and the control value (Balb/C mice [1]; CP 200 mg/kg alone): 45%
Percentage of Granulocytes in Control (Balb/C mice [1]; cyclophosphamide 200 mg/kg alone, blood): 1%

concanavalin A
effect of proteinase K treatment on mitogenic activity [2]: completely inactivate

N[C@@H](Cc1ccc(N(CCCl)CCCl)cc1)C(=O)O [Melphalan, melphalan]
Average time of death (Balb/C mice [3]): day 7
Drug related deaths/# in group (Balb/C mice [3]): 3/6
Average time of death (Balb/C mice [3]; listed as melphalan): eight
